Earlier results on one compound are cited in US20060153908A1, “Spherical pellet formulations” (priority 2002, published 2006).

Counter-ions that a name gives are not always drawn.

The conditions of the data set: in water.

For the compound `COc1cccc(C2(O)CCCCC2CN(C)C)c1` (single isomer, unassigned) [Tramadol hydrochloride, (1R,2R or 1S,2S)-2-[(dimethylamino)methyl]-1-(3-methoxyphenyl)-cyclohexanol], the water solubility entry is given as “very water-soluble”.
